In patent US7211576B2, “Diaminothiazoles” (Hoffmann-La Roche Inc., priority 2004, dated 2007) one finds IC50 data, which are given here for 19 molecules.

Assay type in all cases: biochemical
For one assay, the target named is human cyclin D1-CDK4 (Homo sapiens, UniProt P11802). In words: FlashPlate kinase assay, cyclin D1-CDK4. The following applies: Rb protein substrate, 1 μM ATP, 33P-ATP, 30 minutes room temperature; read-out: CDK4 IC50. The protocol: To determine inhibition of Cdk4, Cdk2 and Cdk1 activity, kinase assays were conducted using FlashPlate™ assays (NEN™-Life Science Products). FlashPlate assays were performed using recombinant human cyclin B-CDK1, human cyclin E-CDK2 or human cyclin D1-CDK4 complexes. GST-cyclinE (GST-cycE), CDK2, GST-cyclinB (GST-cycB), CDK1, GST-CDK4 and cyclin D1 (cycD1) cDNA clones in baculovirus vectors were provided by Dr. W. Harper at the Baylor College of Medicine, Houston, Tex.
Chain of human cyclin D1-CDK4 (P11802 whole entry): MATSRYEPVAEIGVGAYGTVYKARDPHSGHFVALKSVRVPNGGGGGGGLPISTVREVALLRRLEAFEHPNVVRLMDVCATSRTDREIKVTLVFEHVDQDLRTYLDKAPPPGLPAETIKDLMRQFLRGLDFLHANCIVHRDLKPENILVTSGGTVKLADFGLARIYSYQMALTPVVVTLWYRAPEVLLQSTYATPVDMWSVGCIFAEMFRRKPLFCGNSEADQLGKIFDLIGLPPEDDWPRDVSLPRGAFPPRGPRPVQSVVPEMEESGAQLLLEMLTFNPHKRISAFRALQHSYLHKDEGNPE
Chain of human cyclin D1-CDK4 (P24385 whole entry partner): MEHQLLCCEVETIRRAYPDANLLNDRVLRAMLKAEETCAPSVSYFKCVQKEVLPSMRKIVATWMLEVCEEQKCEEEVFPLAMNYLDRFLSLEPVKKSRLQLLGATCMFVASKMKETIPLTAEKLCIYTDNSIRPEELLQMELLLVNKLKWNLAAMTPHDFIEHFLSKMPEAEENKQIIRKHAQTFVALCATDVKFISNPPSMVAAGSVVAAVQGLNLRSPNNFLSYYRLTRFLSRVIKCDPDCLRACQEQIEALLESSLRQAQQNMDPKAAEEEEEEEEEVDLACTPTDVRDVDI
(§1) The expression of the 62Kd protein was under the control of an IPTG inducible promoter in an M15 E. coli strain. Cells were lysed by sonication and purification was carried out by binding lysates at pH 8.0 to a Ni-chelated agarose column pretreated with 1 mM imidazole. The resin was then washed several times with incrementally decreasing pH buffers to pH 6.0, and eluted with 500 mM imidazole. Eluted protein was dialysed against 20 mM HEPES pH 7.5, 30% glycerol, 200 mM NaCl, and 1 mM DTT. Purified Rb fusion protein stocks were quantitated for protein concentration, aliquoted, and stored at −70° C.
(§2) For all three kinase assays reported herein, 96-well FlashPlates were coated with Rb protein at 10 μg/ml, using 100 μl per well. Plates were incubated at 4° C. overnight or at room temperature for 3 hours on a shaker. To control for nonspecific phosphorylation, one row of wells was coated with 100 μl/well coating buffer (20 mM HEPES, 0.2 M NaCl). Plates were then washed twice with wash buffer (0.01% Tween 20 in phosphate-buffered saline). Compounds to be tested (“test compounds”) were added to the wells at 5× final concentration. Reactions were initiated by immediate addition of 40 μl reaction mix (25 mM HEPES, 20 mM MgCl2, 0.002% Tween 20, 2 mM DTT, 1 μM ATP, 4 nM ^33P-ATP) and a sufficient amount of enzyme to give counts that were at least 10-fold above background. Plates were incubated at room temperature on a shaker for 30 minutes. Plates were washed four times with the wash buffer, sealed, and counted on the TopCount scintillation counter (Packard Instrument Co., Downers Grove, Ill.]. The percent inhibition of Rb phosphorylation, which is a measure of the inhibition of CDK activity, was determined according to the following formula:
[formula] where “test compound” refers to the average counts per minute of the test duplicates, “nonspecific” refers to the average counts per minute when no CyclinD/Cdk4, etc., was added, and “total” refers to the average counts per minute when no compound was added.

Another assay has as its target human cyclin E-CDK2 (Homo sapiens, UniProt P24941). In words: FlashPlate kinase assay, cyclin E-CDK2. The following applies: Rb protein substrate, 1 μM ATP, 33P-ATP, 30 minutes room temperature. As for the experimental part:
(§3) To determine inhibition of Cdk4, Cdk2 and Cdk1 activity, kinase assays were conducted using FlashPlate™ assays (NEN™-Life Science Products). FlashPlate assays were performed using recombinant human cyclin B-CDK1, human cyclin E-CDK2 or human cyclin D1-CDK4 complexes. GST-cyclinE (GST-cycE), CDK2, GST-cyclinB (GST-cycB), CDK1, GST-CDK4 and cyclin D1 (cycD1) cDNA clones in baculovirus vectors were provided by Dr. W. Harper at the Baylor College of Medicine, Houston, Tex. Proteins were co-expressed in High Five™ insect cells and the complex was purified on glutathione Sepharose resin (Pharmacia, Piscataway, N.J.) as previously described (Harper, J. W. et al. Cell 1993, 75, 805–816). A 6×-Histidine tagged truncated form of retinoblastoma (Rb) protein (amino acid 386–928) was used as the substrate for the cycD1-CDK4, cycB-CDK1 and the cycE-CDK2 assays (the expression plasmid was provided by Dr. Veronica Sullivan, Department of Molecular Virology, Roche Research Centre, Welwyn Garden City, United Kingdom). The Rb protein is a natural substrate for phosphorylation by CDK4, CDK2 and CDK1 (see Herwig and Strauss Eur. J. Biochem. Vol. 246 (1997) pp. 581–601 and the references cited therein).
as §1, §2
(§4) [formula] where “test compound” refers to the average counts per minute of the test duplicates, “nonspecific” refers to the average counts per minute when no CyclinD/Cdk4, etc., was added, and “total” refers to the average counts per minute when no compound was added. The IC50 value is the concentration of test compound that reduces by 50% the protein-kinase induced incorporation of the radiolabel under the test conditions described.

Another assay addresses human cyclin B-CDK1 (Homo sapiens, UniProt P06493). In words: FlashPlate kinase assay, cyclin B-CDK1. The following applies: Rb protein substrate, 1 μM ATP, 33P-ATP, 30 minutes room temperature. As for the experimental part: as §3, §1, §2, §4

pIC50: −log10 of the molar value.

Chain of human cyclin B-CDK1 (P06493 whole entry): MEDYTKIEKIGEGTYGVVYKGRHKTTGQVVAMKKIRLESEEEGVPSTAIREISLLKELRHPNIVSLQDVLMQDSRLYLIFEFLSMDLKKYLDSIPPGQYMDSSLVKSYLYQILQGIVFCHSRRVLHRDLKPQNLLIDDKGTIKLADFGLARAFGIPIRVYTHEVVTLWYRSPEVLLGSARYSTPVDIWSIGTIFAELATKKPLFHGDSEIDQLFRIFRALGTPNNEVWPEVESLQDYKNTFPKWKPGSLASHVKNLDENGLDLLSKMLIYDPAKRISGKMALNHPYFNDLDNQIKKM
Chain of human cyclin B-CDK1 (P14635 whole entry partner): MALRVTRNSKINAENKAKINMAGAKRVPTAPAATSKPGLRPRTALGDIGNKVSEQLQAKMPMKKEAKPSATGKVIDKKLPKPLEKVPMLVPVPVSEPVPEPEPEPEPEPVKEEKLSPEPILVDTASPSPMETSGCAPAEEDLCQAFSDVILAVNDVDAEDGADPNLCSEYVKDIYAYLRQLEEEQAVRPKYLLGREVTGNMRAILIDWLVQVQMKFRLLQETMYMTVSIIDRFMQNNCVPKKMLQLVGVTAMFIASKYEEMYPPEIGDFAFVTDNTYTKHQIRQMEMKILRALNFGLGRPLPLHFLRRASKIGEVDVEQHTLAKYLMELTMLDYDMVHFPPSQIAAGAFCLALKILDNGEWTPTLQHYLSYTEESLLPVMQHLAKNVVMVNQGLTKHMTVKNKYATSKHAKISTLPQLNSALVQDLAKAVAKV

On to `Nc1nc(Nc2ccc(N3CCC(N4CCCC4)CC3)cc2)sc1C(=O)c1ccc(F)c(F)c1` [Example 68, {4-Amino-2-[4-(4-pyrrolidin-1-yl-piperidin-1-yl)-phenylamino]-thiazol-5-yl}-(3,4-difluoro-phenyl)-methanone], for which the pIC50 was 7.05 at human cyclin D1-CDK4, 5.23 on human cyclin E-CDK2 and 5.41 against human cyclin B-CDK1.
On to `CN(C)C1CCN(c2ccc(Nc3nc(N)c(C(=O)c4ccc(Cl)c([N+](=O)[O-])c4)s3)cc2)CC1` [Example 87, {4-Amino-2-[4-(4-dimethylamino-piperidin-1-yl)-phenylamino]-thiazol-5-yl}-(4-chloro-3-nitro-phenyl)-methanone], for which the pIC50 is 6.88 on human cyclin D1-CDK4, 5.35 at human cyclin E-CDK2 and 5.52 at human cyclin B-CDK1.
The like results for `CN(C)C1CCN(c2ccc(Nc3nc(N)c(C(=O)c4ccc(O)cc4)s3)cc2)CC1` [Example 46, {4-Amino-2-[4-(4-dimethylamino-piperidin-1-yl)-phenylamino]-thiazol-5-yl}-(4-hydroxy-phenyl)-methanone] were, in that order, 7.26, 5.25 and 5.42.
Consider `Nc1nc(Nc2ccc(N3CCC(N4CCCC(O)C4)CC3)cc2)sc1C(=O)c1ccc(Cl)c([N+](=O)[O-])c1` (stereo not drawn) [Example 78, {4-Amino-2-[4-(3-hydroxy-[1,4′]bipiperidinyl-1′-yl)-phenylamino]-thiazol-5-yl}-(4-chloro-3-nitro-phenyl)-methanone], for which the pIC50 was 6.61 on human cyclin D1-CDK4, 5.43 at human cyclin E-CDK2 and 5.54 at human cyclin B-CDK1.
With `Nc1nc(Nc2ccc(N3CCC(N4CCCCC4)CC3)cc2)sc1C(=O)c1cc(F)cc(F)c1` [Example 57, [4-Amino-2-(4-[1,4′]bipiperidinyl-1′-yl-phenylamino)-thiazol-5-yl]-(3,5-difluoro-phenyl)-methanone], the pIC50 is 7.07 at human cyclin D1-CDK4, 5.10 against human cyclin E-CDK2 and 5.45 against human cyclin B-CDK1.
`CN(C)C1CCN(c2ccc(Nc3nc(N)c(C(=O)c4cc(F)cc(F)c4)s3)cc2)CC1` [Example 82, {4-Amino-2-[4-(4-dimethylamino-piperidin-1-yl)-phenylamino]-thiazol-5-yl}-(3,5-difluoro-phenyl)-methanone]: the pIC50 at human cyclin D1-CDK4 is 7.08; against human cyclin E-CDK2, 5.11; on human cyclin B-CDK1, 5.37.
Take `CCOC(=O)c1cc2ccc(C(=O)c3sc(Nc4ccc(N5CCC(N6CCCC6)CC5)cc4)nc3N)cc2[nH]1` [Example 124]: the pIC50 was 7.17 at human cyclin D1-CDK4, 5.36 against human cyclin E-CDK2 and 4.94 against human cyclin B-CDK1.
`Nc1nc(Nc2ccc(N3CCC(N4CCCCC4)CC3)cc2)sc1C(=O)c1cccc(O)c1` [Example 65, [4-Amino-2-(4-[1,4′]bipiperidinyl-1′-yl-phenylamino)-thiazol-5-yl]-(3-hydroxy-phenyl)-methanone]: the results for the pIC50 at human cyclin D1-CDK4, on human cyclin E-CDK2 and against human cyclin B-CDK1 were 7.74, 5.47 and 5.84, respectively.
With `Nc1nc(Nc2ccc(N3CCC(N4CCOCC4)CC3)cc2)sc1C(=O)c1cccc(O)c1` [Example 103, {4-Amino-2-[4-(4-morpholin-4-yl-piperidin-1-yl)-phenylamino]-thiazol-5-yl}-(3-hydroxy-phenyl)-methanone], the values for the pIC50 on human cyclin D1-CDK4, against human cyclin E-CDK2 and on human cyclin B-CDK1 were 7.44, 5.48 and 5.82, respectively.
Turning to `Nc1nc(Nc2ccc(N3CCC(N4CCCC4)CC3)cc2)sc1C(=O)c1ccc(Cl)c(Cl)c1` [Example 69], the values for the pIC50 on human cyclin D1-CDK4, on human cyclin E-CDK2 and against human cyclin B-CDK1 were 6.99, 5.25 and 5.21, respectively.
The like results for `Nc1nc(Nc2ccc(N3CCC(N4CCCC4)CC3)cc2)sc1C(=O)c1ccc(Cl)c([N+](=O)[O-])c1` [Example 71, {4-Amino-2-[4-(4-pyrrolidin-1-yl-piperidin-1-yl)-phenylamino]-thiazol-5-yl}-(4-chloro-3-nitro-phenyl)-methanone] were, in that order, 6.79, 5.38 and 5.39.
For the molecule `Nc1nc(Nc2ccc(N3CCC(N4CCCC(O)C4)CC3)cc2)sc1C(=O)c1ccc(F)c(F)c1` (stereo not drawn) [Example 75, {4-Amino-2-[4-(3-hydroxy-[1,4′]bipiperidinyl-1′-yl)-phenylamino]-thiazol-5-yl}-(3,4-difluoro-phenyl)-methanone], the negative logarithm of the IC50 (pIC50) at human cyclin D1-CDK4 is 7.24; on human cyclin E-CDK2, 5.06; on human cyclin B-CDK1 it was 5.39.
Take `CN(C)C1CCN(c2ccc(Nc3nc(N)c(C(=O)c4ccc(F)c(F)c4)s3)cc2)CC1` [Example 84, {4-Amino-2-[4-(4-dimethylamino-piperidin-1-yl)-phenylamino]-thiazol-5-yl}-(3,4-difluoro-phenyl)-methanone]: the figures for the pIC50 at human cyclin D1-CDK4, against human cyclin E-CDK2 and on human cyclin B-CDK1 were 6.91, 5.02 and 5.43, respectively.
The like results for `Nc1nc(Nc2ccc(N3CCC(N4CCCCC4)CC3)cc2)sc1C(=O)c1cccc([N+](=O)[O-])c1` [Example 89, [4-Amino-2-(4-[1,4′]bipiperidinyl-1′-yl-phenylamino)-thiazol-5-yl]-(3-nitro-phenyl)-methanone] were, in that order, 7.00, 5.65 and 6.29.
With `Nc1nc(Nc2ccc(N3CCC(N4CCOCC4)CC3)cc2)sc1C(=O)c1cccc([N+](=O)[O-])c1` [Example 105, {4-Amino-2-[4-(4-morpholin-4-yl-piperidin-1-yl)-phenylamino]-thiazol-5-yl}-(3-nitro-phenyl)-methanone], the values for the pIC50 at human cyclin D1-CDK4, at human cyclin E-CDK2 and against human cyclin B-CDK1 were 7.41, 5.82 and 5.89, respectively.
As for `COc1ccc(C(=O)c2sc(Nc3ccc(N4CCC(N(C)C)CC4)cc3)nc2N)cc1F` [Example 42, {4-Amino-2-[4-(4-dimethylamino-piperidin-1-yl)-phenylamino]-thiazol-5-yl}-(3-fluoro-4-methoxy-phenyl)-methanone], the pIC50 on human cyclin D1-CDK4 is 7.07; against human cyclin E-CDK2 it was 5.23; at human cyclin B-CDK1 it was 5.24.
As for `Nc1nc(Nc2ccc(N3CCC(N4CCCC(O)C4)CC3)cc2)sc1C(=O)c1ccc(Cl)c(Cl)c1` (stereo not drawn) [Example 76, {4-Amino-2-[4-(3-hydroxy-[1,4′]bipiperidinyl-1′-yl)-phenylamino]-thiazol-5-yl}-(3,4-dichloro-phenyl)-methanone], the pIC50 is 6.91 on human cyclin D1-CDK4 and 5.06 against human cyclin E-CDK2.
For the molecule `Cc1cccc(C(=O)c2sc(Nc3ccc(N4CCC(N5CCCC5)CC4)cc3)nc2N)c1` [Example 109, {4-Amino-2-[4-(4-pyrrolidin-1-yl-piperidin-1-yl)-phenylamino]-thiazol-5-yl}-tolyl-methanone], the pIC50 at human cyclin D1-CDK4 is 7.85; against human cyclin B-CDK1, 6.11.
In the same order, the values of `Nc1nc(Nc2ccc(N3CCC(N4CCOCC4)CC3)cc2)sc1C(=O)c1ccc2c(c1)OCCO2` [Example 98, {4-Amino-2-[4-(4-morpholin-4-yl-piperidin-1-yl)-phenylamino]-thiazol-5-yl}-(2,3-dihydro-benzo[1,4]dioxin-6-yl)-methanone] are 7.41 and 5.57.
